Data taken from US20120088809A1, “1-(2-ALKYL-2,3-DIHYDRO-BENZOFURAN-4-YL)-PYRROLIDIN-3-YLAMINE ACYL COMPOUNDS” (priority 2009, published 2012).

Assays:
[1] = target: T1, recombinant human-MT1 receptor (Homo sapiens, UniProt P48039); test: In vitro MT1 screening (AequoScreen aequorin luminescence, agonism); assay type: cell-based; conditions: percentage of activity relative to the reference agonist at the EC100 concentration
T1 construct: expressed in transfected cells; host or cells: unnamed cell line co-expressing mitochondrial apoaequorin and Gα16
Description: To proceed with compound screening over MT1 receptor, a cell line characterised by a stable overexpression of recombinant human-MT1 receptor was used. This line co-expresses mitochondrial apoaequorin and subunit Gα16.
Subunit Gα16 belongs to GPCR superfamily, in which intracellular signal transduction is produced via phospholipase (PLC). Activation of PLC produces an increment of inositol-triphosphate levels and intracellular calcium levels. This increment in calcium levels is, therefore, independent and full compatible with the signal transduction of MT1 receptor.
After binding to calcium, aequorin carries out the oxidation of colenterazine to colenteramide, a luminescent reaction.
Assay protocol for agonist screening consists in an overnight incubation of cells and colenterazine, being performed by an AequoScreen™ system instrument, PerkinElmer, USA. After that this mixture was injected over a plate that contains the solution of the compounds to screen and luminescence was immediately read. Only in case of antagonism screening, after 15-30 min of the first injection the reference agonist was added in the same well, and then luminescence was measured.
Agonist activity was calculated as percentage of activity relative to the reference agonist at the EC100 concentration.

[2] = Plasma drug levels after oral administration; assay type: in vivo; conditions: male Sprague-Dawley rats; for Ratio 15/60 (plasma level 15 min / 60 min): oral 3 mg/kg; for concentration at 15 min / concentration at 60 min: rat, plasma; for concentration at 15 min: 15 min after oral administration of 3 mg/kg; for concentration at 60 min: 60 min after oral administration of 3 mg/kg
Protocol: The compounds of formula I show the surprising advantage of being maintained at more sustained plasma levels and thus being long acting. This can be evidenced, for instance, by measuring the plasma levels after oral administration to rats at 15 and 60 min after oral administration, resulting in lower ratio values for the compounds of the present invention. Thus the compounds of formula I, characterized in that R2 is an alkyl radical show more sustained plasma levels than prior art compounds (EP1189900B1), wherein R2 is hydrogen. […] Consequently, the present compounds allow for a more efficient therapy: the slow elimination facilitates maintaining a stable plasma concentration at a non-toxic, effective level and the prolonged effect may be expected to result in better compliance of the subject to be treated with the prescribed medication.

T1 sequence (P48039 whole entry): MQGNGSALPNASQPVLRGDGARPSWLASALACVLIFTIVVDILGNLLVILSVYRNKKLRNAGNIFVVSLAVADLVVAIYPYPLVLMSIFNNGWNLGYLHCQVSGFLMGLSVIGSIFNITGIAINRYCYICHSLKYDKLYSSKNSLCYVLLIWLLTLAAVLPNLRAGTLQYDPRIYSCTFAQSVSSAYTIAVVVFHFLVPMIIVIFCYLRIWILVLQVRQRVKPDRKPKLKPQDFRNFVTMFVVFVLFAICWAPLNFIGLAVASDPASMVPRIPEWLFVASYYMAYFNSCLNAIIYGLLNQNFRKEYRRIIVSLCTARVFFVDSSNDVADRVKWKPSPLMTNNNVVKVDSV

Row | Compound | activation at 0.001 µM ([1]; 1 nM compound) [%] | activation at 0.1 µM ([1]; 100 nM compound) [%] | Ratio 15/60 (plasma level 15 min / 60 min) [2] | concentration at 15 min [2] [ng/mL] | concentration at 60 min [2] [ng/mL] | % MT1 at 1 nM (agonism percentage) ([1]; 1 nM compound) [%] | % MT1 at 100 nM (agonism percentage) ([1]; 100 nM compound) [%]
1 | CC1Cc2c(cccc2N2CC[C@H](NC(=O)C(C)C)C2)O1 (stereo partly drawn) [Example 16, N-((3S)-1-(2-methyl-2,3-dihydrobenzofuran-4-yl)pyrrolidin-3-yl)isobutyramide] | 6 | 76 |  |  |  |  | 
2 | CC(=O)N[C@H]1CCN(c2cccc3c2CC(C)O3)C1 (stereo partly drawn) [Example 13, N-((3S)-1-(2-methyl-2,3-dihydrobenzofuran-4-yl)pyrrolidin-3-yl)acetamide] | 17 | 91 | 2.29 | 433 | 189 |  | 
3 | CC1Cc2c(cccc2N2CC[C@H](NC(=O)C3CC3)C2)O1 (stereo partly drawn) [Example 17, N-((3S)-1-(2-methyl-2,3-dihydrobenzofuran-4-yl)pyrrolidin-3-yl)cyclopropanecarboxamide] | 6 | 79 | 0.47 | 17 | 36 |  | 
4 | COc1ccc2[nH]cc(CCNC(C)=O)c2c1 [Melatonin, reference compound] |  |  | 3.49 | 255 | 73 | 42 | 101
5 | CCOC(=O)N[C@H]1CCN(c2ccc(F)c3c2CC(C)O3)C1 (stereo partly drawn) [Example 11, Ethyl (3S)-1-(7-fluoro-2-methyl-2,3-dihydrobenzofuran-4-yl)pyrrolidin-3-ylcarbamate] | 28 | 73 |  |  |  |  | 
6 | CCNC(=O)N[C@H]1CCN(c2ccc(F)c3c2CC(C)O3)C1 (stereo partly drawn) [Example 12, 1-Ethyl-3-((3S)-1-(7-fluoro-2-methyl-2,3-dihydrobenzofuran-4-yl)pyrrolidin-3-yl)urea] | 18 | 90 |  |  |  |  | 
7 | CC1Cc2c(N3CC[C@H](NC(=O)C(F)(F)F)C3)ccc(F)c2O1 (stereo partly drawn) [Example 2, 2,2,2-trifluoro-N-((3S)-1-(7-fluoro-2-methyl-2,3-dihydrobenzofuran-4-yl)pyrrolidin-3-yl)acetamide] | 32 | 79 |  |  |  |  | 
8 | CC1Cc2c(cccc2N2CC[C@H](NC(=O)C(F)(F)F)C2)O1 (stereo partly drawn) [Example 14, 2,2,2-trifluoro-N-((3S)-1-(2-methyl-2,3-dihydrobenzofuran-4-yl)pyrrolidin-3-yl)acetamide] | 8 | 79 |  |  |  |  | 
9 | CC1Cc2c(N3CC[C@H](NC(=O)C4CC4)C3)ccc(F)c2O1 (stereo partly drawn) [Example 7, N-((3S)-1-(7-fluoro-2-methyl-2,3-dihydrobenzofuran-4-yl)pyrrolidin-3-yl)cyclopropanecarboxamide] | 22 | 80 | 0.58 | 5.1 | 8.8 |  | 
10 | CC(=O)N[C@H]1CCN(c2ccc(F)c3c2CC(C)O3)C1 (stereo partly drawn) [Example 1, N-((3S)-1-(7-fluoro-2-methyl-2,3-dihydrobenzofuran-4-yl)pyrrolidin-3-yl)acetamide] | 19 | 73 | 1.03 | 56.8 | 55.4 |  | 
11 | CCC1Cc2c(cccc2N2CC[C@H](NC(C)=O)C2)O1 (stereo partly drawn) [Example 19, N-((3S)-1-(2-ethyl-2,3-dihydrobenzofuran-4-yl)pyrrolidin-3-yl)acetamide] | 23 | 81 |  |  |  |  | 
12 | CCCCC(=O)N[C@H]1CCN(c2ccc(F)c3c2CC(C)O3)C1 (stereo partly drawn) [Example 8, N-((3S)-1-(7-fluoro-2-methyl-2,3-dihydrobenzofuran-4-yl)pyrrolidin-3-yl)pentanamide] | 31 | 89 |  |  |  |  | 
13 | CC(C)CC(=O)N[C@H]1CCN(c2cccc3c2CC(C)O3)C1 (stereo partly drawn) [Example 18, 3-methyl-N-((3S)-1-(2-methyl-2,3-dihydrobenzofuran-4-yl)pyrrolidin-3-yl)butanamide] | 28 | 82 |  |  |  |  | 
14 | CCC(=O)N[C@H]1CCN(c2cccc3c2CC(C)O3)C1 (stereo partly drawn) [Example 15, N-((3S)-1-(2-methyl-2,3-dihydrobenzofuran-4-yl)pyrrolidin-3-yl)propionamide] | 18 | 92 |  |  |  |  | 
15 | CC1Cc2c(N3CC[C@H](NC(=O)C(C)C)C3)ccc(F)c2O1 (stereo partly drawn) [Example 6, N-((3S)-1-(7-fluoro-2-methyl-2,3-dihydrobenzofuran-4-yl)pyrrolidin-3-yl)isobutyramide] | 24 | 75 |  |  |  |  | 
16 | CCC(=O)NCC[C@@H]1CCc2ccc3c(c21)CCO3 [Ramelteon, N-[2-[(8S)-1,6,7,8-tetrahydro-2H-indeno[5,4-b]furan-8-yl)ethyl]propionamide, reference compound] | 45 | 118 | 3.94 | 280 | 71 |  | 
17 | CCCC1Cc2c(cccc2N2CC[C@H](NC(=O)CC)C2)O1 (stereo partly drawn) [Example 21, N-((3S)-1-(2-propyl-2,3-dihydrobenzofuran-4-yl)pyrrolidin-3-yl)propionamide] | 15 | 78 | 1.59 | 59 | 37 |  | 
18 | CCCC(=O)N[C@H]1CCN(c2ccc(F)c3c2CC(C)O3)C1 (stereo partly drawn) [Example 5, N-((3S)-1-(7-fluoro-2-methyl-2,3-dihydrobenzofuran-4-yl)pyrrolidin-3-yl)butyramide] | 32 | 91 |  |  |  |  | 
19 | CCC(C)C(=O)N[C@H]1CCN(c2ccc(F)c3c2CC(C)O3)C1 (stereo partly drawn) [Example 9, N-((3S)-1-(7-fluoro-2-methyl-2,3-dihydrobenzofuran-4-yl)pyrrolidin-3-yl)-2-methylbutanamide] | 17 | 70 |  |  |  |  | 
20 | COC(=O)N[C@H]1CCN(c2ccc(F)c3c2CC(C)O3)C1 (stereo partly drawn) [Example 10, Methyl (3S)-1-(7-fluoro-2-methyl-2,3-dihydrobenzofuran-4-yl)pyrrolidin-3-ylcarbamate] | 36 | 89 |  |  |  |  | 
21 | CCC(=O)N[C@H]1CCN(c2cccc3c2CC(CC)O3)C1 (stereo partly drawn) [Example 20, N-((3S)-1-(2-ethyl-2,3-dihydrobenzofuran-4-yl)pyrrolidin-3-yl)propionamide] | 26 | 88 | 1.80 | 106 | 59 |  | 
22 | CC1Cc2c(N3CC[C@H](NC(=O)C(C)F)C3)ccc(F)c2O1 (stereo partly drawn) [Example 4, 2-fluoro-N-((3S)-1-(7-fluoro-2-methyl-2,3-dihydrobenzofuran-4-yl)pyrrolidin-3-yl)propanamide] | 44 | 98 |  |  |  |  | 
23 | CCC(=O)N[C@H]1CCN(c2ccc(F)c3c2CC(C)O3)C1 (stereo partly drawn) [Example 3, N-((3S)-1-(7-fluoro-2-methyl-2,3-dihydrobenzofuran-4-yl)pyrrolidin-3-yl)propionamide] | 30 | 88 | 1.74 | 113 | 64.9 |  | 
